Values of other authors as cited in PMC9516332 (Frontiers in Oncology, 2022).
Like-named read-outs stand apart in the source and are kept apart here.

Experiments:
Details in all cases: cited from earlier work
[1] = target: T1, panel of 255 wild-type kinases (Homo sapiens, UniProt P42680)
T1 sequence (P42680 1-631): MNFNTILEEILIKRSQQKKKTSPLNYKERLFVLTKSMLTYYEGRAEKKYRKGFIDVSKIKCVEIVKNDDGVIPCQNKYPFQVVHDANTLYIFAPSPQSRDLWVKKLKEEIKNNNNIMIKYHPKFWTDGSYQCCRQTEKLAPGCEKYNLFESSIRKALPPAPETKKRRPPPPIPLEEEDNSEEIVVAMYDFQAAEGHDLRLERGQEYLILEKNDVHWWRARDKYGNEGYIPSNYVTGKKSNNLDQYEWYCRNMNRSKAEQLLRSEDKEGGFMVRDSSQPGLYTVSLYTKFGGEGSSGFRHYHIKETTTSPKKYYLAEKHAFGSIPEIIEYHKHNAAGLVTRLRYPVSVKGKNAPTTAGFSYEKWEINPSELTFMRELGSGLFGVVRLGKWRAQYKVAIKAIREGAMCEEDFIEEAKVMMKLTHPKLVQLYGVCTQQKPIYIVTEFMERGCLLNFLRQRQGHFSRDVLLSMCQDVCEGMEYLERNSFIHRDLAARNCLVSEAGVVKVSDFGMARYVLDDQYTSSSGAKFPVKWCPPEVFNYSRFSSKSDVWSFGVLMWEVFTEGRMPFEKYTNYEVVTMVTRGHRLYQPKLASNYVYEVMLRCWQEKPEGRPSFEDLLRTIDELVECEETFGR

[2] = target: T2, panel of 255 wild-type kinases (Homo sapiens, UniProt Q13470)
T2 sequence (Q13470 1-666): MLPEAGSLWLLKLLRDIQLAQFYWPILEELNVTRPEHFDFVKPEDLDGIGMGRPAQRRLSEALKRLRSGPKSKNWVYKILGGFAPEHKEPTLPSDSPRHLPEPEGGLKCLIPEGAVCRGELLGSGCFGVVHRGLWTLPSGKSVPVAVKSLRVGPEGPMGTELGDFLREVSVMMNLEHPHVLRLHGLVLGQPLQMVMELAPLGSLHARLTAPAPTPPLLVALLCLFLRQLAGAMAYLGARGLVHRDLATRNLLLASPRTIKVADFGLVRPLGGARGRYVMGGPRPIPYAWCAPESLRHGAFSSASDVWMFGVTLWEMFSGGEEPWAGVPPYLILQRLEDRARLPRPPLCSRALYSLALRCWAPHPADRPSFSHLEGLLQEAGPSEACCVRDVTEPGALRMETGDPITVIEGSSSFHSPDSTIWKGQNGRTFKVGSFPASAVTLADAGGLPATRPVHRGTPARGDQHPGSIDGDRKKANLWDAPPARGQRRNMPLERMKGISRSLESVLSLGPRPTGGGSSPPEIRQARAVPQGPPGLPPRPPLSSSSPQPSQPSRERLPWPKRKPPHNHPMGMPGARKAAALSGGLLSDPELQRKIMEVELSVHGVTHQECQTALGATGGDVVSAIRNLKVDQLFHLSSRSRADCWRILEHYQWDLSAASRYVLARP

[3] = target: T3, panel of 255 wild-type kinases (Homo sapiens, UniProt Q96KB5)
T3 sequence (Q96KB5 1-322): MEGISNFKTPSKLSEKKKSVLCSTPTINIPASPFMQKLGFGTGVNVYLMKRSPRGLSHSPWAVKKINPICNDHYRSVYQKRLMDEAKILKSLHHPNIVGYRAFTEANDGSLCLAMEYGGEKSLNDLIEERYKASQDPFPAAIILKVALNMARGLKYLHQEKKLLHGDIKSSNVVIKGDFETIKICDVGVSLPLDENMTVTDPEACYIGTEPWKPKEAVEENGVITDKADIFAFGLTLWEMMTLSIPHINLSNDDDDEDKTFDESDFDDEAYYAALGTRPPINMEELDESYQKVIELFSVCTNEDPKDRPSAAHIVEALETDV

[4] = target: T4, panel of 255 wild-type kinases (Homo sapiens, UniProt Q96L34)
T4 sequence (Q96L34 1-752): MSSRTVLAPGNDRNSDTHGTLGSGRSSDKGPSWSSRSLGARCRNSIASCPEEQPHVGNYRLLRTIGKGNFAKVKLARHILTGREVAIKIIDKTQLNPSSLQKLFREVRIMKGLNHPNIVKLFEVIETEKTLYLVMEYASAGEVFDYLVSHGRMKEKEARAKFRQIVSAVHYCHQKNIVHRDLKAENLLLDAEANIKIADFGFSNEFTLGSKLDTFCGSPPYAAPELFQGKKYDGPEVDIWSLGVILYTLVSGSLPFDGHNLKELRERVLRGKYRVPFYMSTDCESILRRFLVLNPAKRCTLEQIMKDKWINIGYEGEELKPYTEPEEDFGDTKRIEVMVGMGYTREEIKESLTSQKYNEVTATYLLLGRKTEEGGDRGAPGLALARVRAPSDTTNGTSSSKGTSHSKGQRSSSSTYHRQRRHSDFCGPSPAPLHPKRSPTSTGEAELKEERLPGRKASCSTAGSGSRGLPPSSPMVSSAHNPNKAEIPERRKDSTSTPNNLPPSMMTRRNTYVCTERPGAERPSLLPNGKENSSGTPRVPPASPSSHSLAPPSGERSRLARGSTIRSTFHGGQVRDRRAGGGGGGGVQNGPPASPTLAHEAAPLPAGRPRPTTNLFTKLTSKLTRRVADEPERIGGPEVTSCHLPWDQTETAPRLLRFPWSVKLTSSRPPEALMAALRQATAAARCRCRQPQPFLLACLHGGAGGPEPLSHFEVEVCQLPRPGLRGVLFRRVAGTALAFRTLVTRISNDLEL

[5] = target: panel of 255 wild-type kinases (Homo sapiens, UniProt Q9NYA1)
[6] = kinase TEC, 1 µmol/L single concentration, ref DOI: 10.1158/1535-7163.MCT-18-0877
[7] = kinase TNK1, 1 µmol/L single concentration, ref DOI: 10.1158/1535-7163.MCT-18-0877
[8] = kinase PBK, 1 µmol/L single concentration, ref DOI: 10.1158/1535-7163.MCT-18-0877
[9] = MARK4, 1 µmol/L single concentration, ref DOI: 10.1158/1535-7163.MCT-18-0877
[10] = kinase SPHK1, 1 µmol/L single concentration, ref DOI: 10.1158/1535-7163.MCT-18-0877
[11] = kinase TEC, 1 µmol/L single concentration, ref DOI: 10.1371/journal.pone.0092146
[12] = kinase TNK1, 1 µmol/L single concentration, ref DOI: 10.1371/journal.pone.0092146
[13] = kinase PBK, 1 µmol/L single concentration, ref DOI: 10.1371/journal.pone.0092146
[14] = MARK4, 1 µmol/L single concentration, ref DOI: 10.1371/journal.pone.0092146
[15] = kinase SPHK1, 1 µmol/L single concentration, ref DOI: 10.1371/journal.pone.0092146

## CC#CC(=O)N1CCC[C@H]1c1nc(-c2ccc(C(=O)Nc3ccccn3)cc2)c2c(N)nccn12 [acalabrutinib]
[1]; [6]
  %-inhibition at 1 µmol/L, TEC: 96%
[2]; [7]
  %-inhibition at 1 µmol/L, TNK1: -1.8%
[3]; [8]
  %-inhibition at 1 µmol/L, PBK: -15%
[4]; [9]
  %-inhibition, MARK4: -15%
[5]; [10]
  %-inhibition at 1 µmol/L, SPHK1: -3%

## CCc1cc2c(cc1N1CCC(N3CCOCC3)CC1)C(C)(C)c1[nH]c3cc(C#N)ccc3c1C2=O [alectinib]
[1]; [6]
  %-inhibition at 1 µmol/L, TEC: 1.06%
[2]; [7]
  %-inhibition at 1 µmol/L, TNK1: 11%
[3]; [8]
  %-inhibition at 1 µmol/L, PBK: -2.63%
[4]; [9]
  %-inhibition, MARK4: -3%
[5]; [10]
  %-inhibition at 1 µmol/L, SPHK1: -10%

## COc1cc(N2CCC(N3CCN(C)CC3)CC2)ccc1Nc1ncc(Cl)c(Nc2ccccc2P(C)(C)=O)n1 [brigatinib]
[1]
  %-inhibition at 1 µmol/L, TEC: 40%
[2]
  %-inhibition at 1 µmol/L, TNK1: 101%
[3]
  %-inhibition at 1 µmol/L, PBK: 1.09%
[4]
  %-inhibition, MARK4: 101%
[5]
  %-inhibition at 1 µmol/L, SPHK1: -4%

## Cc1cc(Nc2ncc(Cl)c(Nc3ccccc3S(=O)(=O)C(C)C)n2)c(OC(C)C)cc1C1CCNCC1 [ceritinib]
[1]; [6]
  %-inhibition at 1 µmol/L, TEC: -8%
[2]; [7]
  %-inhibition at 1 µmol/L, TNK1: 101%
[3]; [8]
  %-inhibition at 1 µmol/L, PBK: -11%
[4]; [9]
  %-inhibition, MARK4: -2.63%
[5]; [10]
  %-inhibition at 1 µmol/L, SPHK1: -13%

## O=C(c1ccc(F)c(F)c1Nc1ccc(I)cc1F)N1CC(O)([C@@H]2CCCCN2)C1 [cobimetinib]
[1]; [6]
  %-inhibition at 1 µmol/L, TEC: -1%
[2]; [7]
  %-inhibition at 1 µmol/L, TNK1: 4.29%
[3]; [8]
  %-inhibition at 1 µmol/L, PBK: 76%
[4]; [9]
  %-inhibition, MARK4: -15%
[5]; [10]
  %-inhibition at 1 µmol/L, SPHK1: -5.63%

## C[C@@H](Oc1cc(-c2cnn(C3CCNCC3)c2)cnc1N)c1c(Cl)ccc(F)c1Cl [crizotinib]
[1]; [11]
  %-inhibition at 1 µmol/L, TEC: 1.53%
[2]; [12]
  %-inhibition at 1 µmol/L, TNK1: 41%
[3]; [13]
  %-inhibition at 1 µmol/L, PBK: -14%
[4]; [14]
  %-inhibition, MARK4: 51%
[5]; [15]
  %-inhibition at 1 µmol/L, SPHK1: -14%

## CC(C)(C)c1nc(-c2cccc(NS(=O)(=O)c3c(F)cccc3F)c2F)c(-c2ccnc(N)n2)s1 [dabrafenib]
[1]; [11]
  %-inhibition at 1 µmol/L, TEC: 38%
[2]; [12]
  %-inhibition at 1 µmol/L, TNK1: 100%
[3]; [13]
  %-inhibition at 1 µmol/L, PBK: 12%
[4]; [14]
  %-inhibition, MARK4: -27%
[5]; [15]
  %-inhibition at 1 µmol/L, SPHK1: -18%

## C=CC(=O)N1CCC[C@@H](n2nc(-c3ccc(Oc4ccccc4)cc3)c3c(N)ncnc32)C1 [ibrutinib]
[1]; [6]
  %-inhibition at 1 µmol/L, TEC: 92%
[2]; [7]
  %-inhibition at 1 µmol/L, TNK1: 6%
[3]; [8]
  %-inhibition at 1 µmol/L, PBK: -9%
[4]; [9]
  %-inhibition, MARK4: -14%
[5]; [10]
  %-inhibition at 1 µmol/L, SPHK1: -3.38%

## CO[C@@H]1[C@H](N(C)C(=O)c2ccccc2)C[C@H]2O[C@]1(C)n1c3ccccc3c3c4c(c5c6ccccc6n2c5c31)C(=O)NC4 [midostaurin]
[1]; [6]
  %-inhibition at 1 µmol/L, TEC: 58%
[2]; [7]
  %-inhibition at 1 µmol/L, TNK1: 101%
[3]; [8]
  %-inhibition at 1 µmol/L, PBK: -7%
[4]; [9]
  %-inhibition, MARK4: 101%
[5]; [10]
  %-inhibition at 1 µmol/L, SPHK1: -2.46%

## C=CC(=O)Nc1cc(Nc2nccc(-c3cn(C)c4ccccc34)n2)c(OC)cc1N(C)CCN(C)C [osimertinib]
[1]; [6]
  %-inhibition at 1 µmol/L, TEC: 86%
[2]; [7]
  %-inhibition at 1 µmol/L, TNK1: 100%
[3]; [8]
  %-inhibition at 1 µmol/L, PBK: 77%
[4]; [9]
  %-inhibition, MARK4: -13%
[5]; [10]
  %-inhibition at 1 µmol/L, SPHK1: 9%

## CC(=O)Nc1cccc(-n2c(=O)n(C3CC3)c(=O)c3c(Nc4ccc(I)cc4F)n(C)c(=O)c(C)c32)c1 [trametinib]
[1]; [11]
  %-inhibition at 1 µmol/L, TEC: -7.53%
[2]; [12]
  %-inhibition at 1 µmol/L, TNK1: -2.58%
[3]; [13]
  %-inhibition at 1 µmol/L, PBK: -3.79%
[4]; [14]
  %-inhibition, MARK4: -15%
[5]; [15]
  %-inhibition at 1 µmol/L, SPHK1: -11%

## CCCS(=O)(=O)Nc1ccc(F)c(C(=O)c2c[nH]c3ncc(-c4ccc(Cl)cc4)cc23)c1F [vemurafenib]
[1]; [11]
  %-inhibition at 1 µmol/L, TEC: -0.191%
[2]; [12]
  %-inhibition at 1 µmol/L, TNK1: 13%
[3]; [13]
  %-inhibition at 1 µmol/L, PBK: -12%
[4]; [14]
  %-inhibition, MARK4: 3.78%
[5]; [15]
  %-inhibition at 1 µmol/L, SPHK1: -11%
